± gives the uncertainty stated by the source.
Assay: xn = mol fraction of the nth substance listed

C=Cc1ccccc1 + CCCO
298.15 K, 101.33 kPa
Details | viscosity [mPa·s]
x1 = 0.0999 | 1.594 ± 0.075
x1 = 0.1997 | 1.326 ± 0.063
x1 = 0.298 | 1.153 ± 0.056
x1 = 0.3952 | 1.011 ± 0.05
x1 = 0.4985 | 0.892 ± 0.045
x1 = 0.6022 | 0.815 ± 0.041
x1 = 0.6984 | 0.762 ± 0.039
x1 = 0.7985 | 0.727 ± 0.038
x1 = 0.9019 | 0.707 ± 0.037

CCC(C)(C)OC + CCCO
298.15 K, 101.33 kPa
Details | viscosity [mPa·s]
x1 = 0.0142 | 1.889 ± 0.057
x1 = 0.0405 | 1.759 ± 0.054
x1 = 0.0642 | 1.647 ± 0.05
x1 = 0.0889 | 1.548 ± 0.048
x1 = 0.1148 | 1.461 ± 0.045
x1 = 0.152 | 1.33 ± 0.042
x1 = 0.2075 | 1.18 ± 0.038
x1 = 0.2876 | 1.002 ± 0.033
x1 = 0.289 | 0.999 ± 0.033
x1 = 0.3381 | 0.912 ± 0.03
x1 = 0.3924 | 0.833 ± 0.028
x1 = 0.4452 | 0.767 ± 0.026
x1 = 0.489 | 0.72 ± 0.025
x1 = 0.5363 | 0.677 ± 0.024
x1 = 0.5867 | 0.633 ± 0.023
x1 = 0.645 | 0.594 ± 0.022
x1 = 0.6933 | 0.564 ± 0.021
x1 = 0.7588 | 0.53 ± 0.02
x1 = 0.8347 | 0.496 ± 0.019
x1 = 0.9093 | 0.455 ± 0.018
x1 = 0.947 | 0.454 ± 0.018

CCCCCCCCO + CCCO
viscosity [mPa·s], 101 kPa
Details | 298.15 K | 308.15 K | 318.15 K
x2 = 0.05 | 7.025 ± 0.069 | 4.92 ± 0.048 | 3.71 ± 0.034
x2 = 0.1 | 6.694 ± 0.066 | 4.637 ± 0.045 | 3.555 ± 0.033
x2 = 0.15 | 6.37 ± 0.063 | 4.394 ± 0.043 | 3.406 ± 0.031
x2 = 0.2 | 6.052 ± 0.06 | 4.183 ± 0.041 | 3.261 ± 0.029
x2 = 0.25 | 5.742 ± 0.056 | 3.995 ± 0.039 | 3.12 ± 0.028
x2 = 0.3 | 5.438 ± 0.053 | 3.824 ± 0.037 | 2.982 ± 0.027
x2 = 0.35 | 5.141 ± 0.05 | 3.663 ± 0.035 | 2.847 ± 0.026
x2 = 0.4 | 4.851 ± 0.047 | 3.507 ± 0.033 | 2.713 ± 0.025
x2 = 0.45 | 4.568 ± 0.043 | 3.353 ± 0.031 | 2.581 ± 0.023
x2 = 0.5 | 4.291 ± 0.04 | 3.197 ± 0.029 | 2.45 ± 0.022
x2 = 0.55 | 4.021 ± 0.037 | 3.036 ± 0.028 | 2.32 ± 0.021
x2 = 0.6 | 3.758 ± 0.034 | 2.869 ± 0.026 | 2.191 ± 0.02
x2 = 0.65 | 3.501 ± 0.032 | 2.696 ± 0.024 | 2.063 ± 0.019
x2 = 0.7 | 3.249 ± 0.029 | 2.517 ± 0.023 | 1.936 ± 0.017
x2 = 0.75 | 3.003 ± 0.027 | 2.333 ± 0.021 | 1.811 ± 0.016
x2 = 0.8 | 2.762 ± 0.025 | 2.147 ± 0.019 | 1.687 ± 0.015
x2 = 0.85 | 2.526 ± 0.023 | 1.962 ± 0.017 | 1.565 ± 0.014
x2 = 0.9 | 2.294 ± 0.021 | 1.782 ± 0.016 | 1.445 ± 0.013
x2 = 0.95 | 2.065 ± 0.018 | 1.612 ± 0.014 | 1.329 ± 0.012

CC(=O)c1ccc(Cl)cc1 + CCNc1ccccc1
303.15 K, 100 kPa
Details | viscosity [mPa·s]
x2 = 0.0798 | 2.295 ± 0.028
x2 = 0.1568 | 2.242 ± 0.027
x2 = 0.2321 | 2.191 ± 0.027
x2 = 0.2989 | 2.147 ± 0.026
x2 = 0.3614 | 2.106 ± 0.026
x2 = 0.4467 | 2.051 ± 0.025
x2 = 0.5163 | 2.008 ± 0.025
x2 = 0.5841 | 1.967 ± 0.024
x2 = 0.6601 | 1.922 ± 0.024
x2 = 0.7245 | 1.885 ± 0.024
x2 = 0.7874 | 1.85 ± 0.023
x2 = 0.8487 | 1.818 ± 0.023
x2 = 0.9042 | 1.788 ± 0.023

CC#N + CCO
viscosity [mPa·s]
Details | 293.15 K | 298.15 K | 303.15 K | 308.15 K | 313.15 K
101 kPa, x1 = 0.0898 | – | 0.87 ± 0.01 | 0.736 ± 0.009 | 0.632 ± 0.007 | –
101 kPa, x1 = 0.187 | – | 0.71 ± 0.009 | 0.606 ± 0.007 | 0.523 ± 0.006 | –
101 kPa, x1 = 0.2973 | – | 0.594 ± 0.007 | 0.518 ± 0.006 | 0.454 ± 0.005 | –
101 kPa, x1 = 0.396 | – | 0.517 ± 0.006 | 0.455 ± 0.005 | 0.405 ± 0.005 | –
101 kPa, x1 = 0.4843 | – | 0.463 ± 0.005 | 0.409 ± 0.005 | 0.364 ± 0.004 | –
101 kPa, x1 = 0.5987 | – | 0.416 ± 0.005 | 0.37 ± 0.004 | 0.334 ± 0.004 | –
101 kPa, x1 = 0.7114 | – | 0.376 ± 0.004 | 0.342 ± 0.004 | 0.309 ± 0.004 | –
101 kPa, x1 = 0.8072 | – | 0.357 ± 0.004 | 0.325 ± 0.004 | 0.298 ± 0.004 | –
101 kPa, x1 = 0.9139 | – | 0.345 ± 0.004 | 0.314 ± 0.004 | 0.29 ± 0.004 | –
101.3 kPa, x1 = 0.1107 | – | 0.85 ± 0.022 | 0.779 ± 0.02 | 0.715 ± 0.019 | 0.656 ± 0.017
101.3 kPa, x1 = 0.2192 | – | 0.693 ± 0.018 | 0.642 ± 0.017 | 0.589 ± 0.016 | 0.542 ± 0.015
101.3 kPa, x1 = 0.3249 | – | 0.584 ± 0.016 | 0.545 ± 0.015 | 0.499 ± 0.014 | 0.467 ± 0.013
101.3 kPa, x1 = 0.4279 | – | 0.506 ± 0.014 | 0.473 ± 0.013 | 0.444 ± 0.013 | 0.417 ± 0.012
101.3 kPa, x1 = 0.5288 | – | 0.458 ± 0.013 | 0.428 ± 0.012 | 0.405 ± 0.012 | 0.38 ± 0.011
101.3 kPa, x1 = 0.6267 | – | 0.414 ± 0.012 | 0.391 ± 0.012 | 0.377 ± 0.011 | 0.352 ± 0.011
101.3 kPa, x1 = 0.7236 | – | 0.392 ± 0.012 | 0.366 ± 0.011 | 0.347 ± 0.011 | 0.331 ± 0.01
101.3 kPa, x1 = 0.8179 | – | 0.37 ± 0.011 | 0.349 ± 0.011 | 0.333 ± 0.01 | 0.316 ± 0.01
101.3 kPa, x1 = 0.9099 | – | 0.354 ± 0.011 | 0.336 ± 0.01 | 0.317 ± 0.01 | 0.301 ± 0.01
101.33 kPa, x1 = 0.04 | 1.12 ± 0.01 | – | – | – | –
101.33 kPa, x1 = 0.1 | 0.9979 ± 0.0093 | – | – | – | –
101.33 kPa, x1 = 0.12 | 0.939 ± 0.0088 | – | – | – | –
101.33 kPa, x1 = 0.17 | 0.9065 ± 0.0084 | – | – | – | –
101.33 kPa, x1 = 0.28 | 0.7033 ± 0.0066 | – | – | – | –
101.33 kPa, x1 = 0.33 | 0.6415 ± 0.006 | – | – | – | –
101.33 kPa, x1 = 0.43 | 0.5585 ± 0.0053 | – | – | – | –
101.33 kPa, x1 = 0.67 | 0.4418 ± 0.0042 | – | – | – | –
101.33 kPa, x1 = 0.83 | 0.4001 ± 0.0039 | – | – | – | –
